# Data published in patent US8497278B2, “Imidazo[1,2-a]pyridine compounds” (priority 2008, dated 2013).
# Legend:
# rhesus monkeys = assay: Rhesus monkey conflict test; format: in vivo; conditions: cumulative dosing
# Source text: Conflict protocol: The conflict procedure is a well established operant conditioning approach to evaluate anxiolytic-like effects of test compounds. In this procedure, positively-reinforced behavior is suppressed by response-contingent administration of a noxious stimulus (i.e., mild electric shock). Compounds with anxiolytic effects in humans (e.g., benzodiazepines) characteristically increase rates of responding that are suppressed by shock and are referred to as anti-conflict or anxiolytic-like effects. […] In addition to anxiolytic-like effects, conflict procedures also provide an assessment of the ability of the animal to perform operant lever pressing. This is typically assessed by including lever pressing in the absence of the noxious stimulus. Most anxiolytic compounds will decrease rates of responding in the absence of shock at doses higher than those that induce anxiolytic-like effects. The effects contributing to anxiolytic-induced decreases in non-suppressed responding are not well understood, but likely consist of a combination of motor co-ordination deficits and sedative effects.
# Adult rhesus monkeys were used in these studies (n=1-4). Weights of the monkeys ranged from 6.2 to 10.5 kg. The animals had been previously trained using the conflict procedure. Animals were maintained at 85-95% of their free-feeding weights by manipulation of food intake. Monkeys were individually housed with water available ad libitum, and maintained on a 12 hour lights-on/12 hour lights-off cycle (lights on at 0600 a.m.). Monkeys received Harlan Teklad diet (15% Primate Diet) as well as supplemental feeding (fruits, vegetables, and commercially available primate treats) daily. They were also given toys and video enrichment when not in an experimental session. Each animal was prepared prior to the study with a chronic indwelling venous catheter for drug delivery. A polyvinyl chloride catheter was implanted in a jugular, femoral or brachial vein under isoflurane anesthesia and aseptic conditions. The proximal end of the catheter terminated above the right atrium, and the distal end was passed subcutaneously to exit in the midscapular region. Experimental sessions began 5-7 days following surgery. Catheters had been implanted approximately 3 months to 1 year prior to the initiation of the study. During experimental sessions, monkeys were seated in primate chairs that were placed in ventilated sound-attenuating chambers. A single response lever was mounted on the wall of the chamber in front of the monkey. Each press of a lever produced an audible click and was recorded as a response via electromechanical equipment, a computer interface, and PC with specialized software. Food pellets could be delivered into a tray located next to the lever. Mild electric shock could be delivered to the bottom of the feet via brass electrodes that were fitted to shoes. Red and green lights mounted above the levers could be illuminated to serve as visual stimuli.
# Monkeys were trained under a multiple schedule of food reinforcement adapted from Spealman (1979). A daily session consisted of 4 cycles, each preceded by a 10-min time out period in which all lights in the chamber were off and responding had no programmed consequences. Each cycle consisted of two components, component 1 and 2. Component 1 was signaled by red stimulus lights and consisted of an 18-response schedule (FR18) of food pellet delivery (i.e., the animal receives a food pellet following 18 responses). Component 2, signaled by green stimulus lights, followed immediately and consisted of the FR18 schedule of food delivery combined with a FR20 schedule of foot shock delivery (1.5-3.0 mA, adjusted for each monkey based on individual performance, 0.25 sec duration). Delivery of a food pellet (FR18 schedule) was followed by a 10 sec time out in which responses had no programmed consequences. […]
# [1] = biological target: T1, α1 subtype containing GABA-A receptors (Homo sapiens, UniProt P14867+P18507); assay: Two-electrode voltage clamp electrophysiology in Xenopus oocytes, potentiation of GABA EC20 response, α1; format: cell-based; conditions: 100 nM compound
# T1 construct: expressed in transfected cells; host or cells: Xenopus laevis oocytes, cRNA injected
# T1 sequence (P14867 28-456): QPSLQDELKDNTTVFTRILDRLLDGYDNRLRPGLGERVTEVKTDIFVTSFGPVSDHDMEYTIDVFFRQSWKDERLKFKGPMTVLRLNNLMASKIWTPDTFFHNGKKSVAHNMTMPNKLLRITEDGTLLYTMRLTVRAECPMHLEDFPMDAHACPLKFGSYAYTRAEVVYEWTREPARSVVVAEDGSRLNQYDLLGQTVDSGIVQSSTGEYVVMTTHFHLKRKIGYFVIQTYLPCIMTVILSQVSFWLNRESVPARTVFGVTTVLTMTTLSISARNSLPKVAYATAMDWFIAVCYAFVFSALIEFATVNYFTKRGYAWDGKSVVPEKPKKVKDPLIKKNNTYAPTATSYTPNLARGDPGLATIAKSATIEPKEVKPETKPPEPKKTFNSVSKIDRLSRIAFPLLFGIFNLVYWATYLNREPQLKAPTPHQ
# T1 sequence (P28472 26-473 partner): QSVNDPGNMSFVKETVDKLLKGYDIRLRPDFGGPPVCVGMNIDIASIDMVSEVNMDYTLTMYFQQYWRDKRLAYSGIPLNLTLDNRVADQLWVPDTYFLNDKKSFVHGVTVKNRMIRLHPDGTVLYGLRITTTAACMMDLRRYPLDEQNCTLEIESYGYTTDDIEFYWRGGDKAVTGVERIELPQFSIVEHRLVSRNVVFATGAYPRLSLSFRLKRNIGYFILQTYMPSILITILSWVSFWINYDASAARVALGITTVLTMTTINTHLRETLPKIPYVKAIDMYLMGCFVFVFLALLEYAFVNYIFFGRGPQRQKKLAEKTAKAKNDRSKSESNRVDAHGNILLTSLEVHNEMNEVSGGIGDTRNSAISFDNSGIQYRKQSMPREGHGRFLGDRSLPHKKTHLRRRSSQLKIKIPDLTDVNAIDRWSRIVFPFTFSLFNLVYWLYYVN
# T1 sequence (P18507 40-475): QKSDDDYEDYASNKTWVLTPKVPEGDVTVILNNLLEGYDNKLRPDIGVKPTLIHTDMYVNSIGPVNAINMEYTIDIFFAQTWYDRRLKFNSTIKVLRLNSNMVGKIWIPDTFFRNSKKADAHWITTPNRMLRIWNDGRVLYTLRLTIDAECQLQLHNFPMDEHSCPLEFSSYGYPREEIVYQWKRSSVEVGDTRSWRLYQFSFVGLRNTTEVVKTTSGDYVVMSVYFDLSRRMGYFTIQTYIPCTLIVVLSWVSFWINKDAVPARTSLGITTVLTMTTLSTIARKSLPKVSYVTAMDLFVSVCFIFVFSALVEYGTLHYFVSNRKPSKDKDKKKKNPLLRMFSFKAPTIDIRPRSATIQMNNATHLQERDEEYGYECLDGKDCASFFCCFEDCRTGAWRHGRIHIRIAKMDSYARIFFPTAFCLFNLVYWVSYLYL
# How it was run: (§1)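 Test compounds (100 nM) were assessed for enhancement of a 60 μM (EC20) GABA current in two-electrode-clamped oocytes (−80 mV, ND96 pH 7.5) injected with human αx (1, 2, 3 or 5), β3 and γ2L cRNA. Each oocyte received a 1 μM chlordiazepoxide standard first and was excluded if expression or γ2L incorporation was insufficient.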
# [2] = test system: central benzodiazepine receptors; assay: Central benzodiazepine receptor binding (test of Speth et al.); conditions: 1000 nM of the compound
# How it was run: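 Values are percent inhibition of central benzodiazepine receptor binding at 1000 nM compound (initial single-point screen at 1.0E-09, 1.0E-07 and 1.0E-05 M). Speth et al. binding test; nonspecific binding defined with excess unlabelled ligand and subtracted from total.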
# Swiss Webster (CFW) mice = assay: Four Plate Test (FPT); format: in vivo; conditions: mouse, 30 min before test, 2 min session
# Source text: Four Plate Test (FPT) Protocol: The four plate test (FPT) is an animal model of anxiety in which simple ongoing behavior (exploration of novel surroundings) is suppressed by the delivery of mild electric foot-shock contingent to quadrant crossing (Aron, et al., 1971). Clinically effective classes of anxiolytic compounds such as benzodiazepines, selective serotonin reuptake inhibitors, or 5-HT1A receptor agonists produce a marked anti-punishment effect (an increase in punished crossings), which is thought to indicate anxiolytic activity (Aron, et al., 1971; Bourin, et al., 1992; Hascoet, et al., 2000; Ring, et al., 2006). The four plate apparatus (Bioseb, Chaville France) consists of a cage (18×25×16 cm) floored by four identical rectangular metal plates (8×11 cm) separated from one another by a gap of 4 mm. The plates are connected to a shocker unit that can generate electric foot shocks.
# Male Swiss Webster (CFW) mice from Charles River (Wilmington, Mass.) were used for the FPT. Mice were received at 3-weeks of age. Upon receipt, mice were assigned unique identification numbers (tail marked) and were group housed with 4 mice per cage in mouse ventilated racks. All animals remained housed in groups of four during the remainder of the study. All mice were acclimated to the colony room for at least one week prior to testing and were subsequently tested at an average age of 4 weeks of age. During the period of acclimation, mice […] were examined on a regular basis, handled, and weighed to assure adequate healtH, D and suitability. Animals were maintained on a 12/12 light/dark cycle. The room temperature was maintained between 20 and 23° C. with a relative humidity maintained between 30% and 70%. Chow and water were provided ad libitum for the duration of the study. In each test, animals were randomly assigned across treatment groups. Alprazolam (0.3 mg/kg) was used as the positive control. Compounds of the present invention, vehicle (45% hydroxypropyl beta-cyclodextrin) and alprazolam were administered orally to all groups (n=10 mice per group) 30 minutes prior to behavioral testing. Following pretreatment, mice were gently placed in the four plate chamber and allowed to explore the enclosure for 18 seconds. After the exploration period, every time the mouse crossed from one plate to another, the experimenter, blind to the dosing conditions, administered a mild electric foot-shock, and referred to as a punished crossing. The intensity and duration of the foot-shock were 0.5 mA for 0.5 seconds. The number of punished crossings was recorded during the 2 min test session. The plates were thoroughly cleaned with 70% ethanol immediately after each mouse. All data were analyzed using an analysis of variance (ANOVA) followed by Fisher's PLSD post hoc test. An effect was considered significance if p<0.05. Statistical outliers above or below 2 standard deviations from the mean in any of the […] were removed from the final analysis.
# [3] = biological target: T2, α2 subtype containing GABA-A receptors (Homo sapiens, UniProt P18507+P47869); assay: Two-electrode voltage clamp electrophysiology in Xenopus oocytes, potentiation of GABA EC20 response, α2; format: cell-based; conditions: 100 nM compound
# T2 construct: expressed in transfected cells; host or cells: Xenopus laevis oocytes, cRNA injected
# T2 sequence (P47869 29-451): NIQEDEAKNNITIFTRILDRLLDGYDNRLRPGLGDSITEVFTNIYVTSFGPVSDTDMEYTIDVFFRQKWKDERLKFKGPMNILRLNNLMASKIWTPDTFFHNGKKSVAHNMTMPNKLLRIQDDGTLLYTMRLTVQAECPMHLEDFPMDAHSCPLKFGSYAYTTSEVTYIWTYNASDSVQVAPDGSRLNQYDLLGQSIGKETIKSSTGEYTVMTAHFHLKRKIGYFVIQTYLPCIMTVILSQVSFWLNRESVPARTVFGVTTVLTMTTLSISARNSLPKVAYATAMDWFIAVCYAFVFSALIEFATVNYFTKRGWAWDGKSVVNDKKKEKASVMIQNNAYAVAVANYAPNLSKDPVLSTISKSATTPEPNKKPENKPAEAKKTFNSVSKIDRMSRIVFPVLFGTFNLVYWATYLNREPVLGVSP
# T2 sequence (P28472 26-473 partner): as the sequence (P28472 26-473 partner) above
# T2 sequence (P18507 40-475): as the sequence (P18507 40-475) above
# How it was run: as §1
# [4] = biological target: T3, α3 subtype containing GABA-A receptors (Homo sapiens, UniProt P18507+P34903); assay: Two-electrode voltage clamp electrophysiology in Xenopus oocytes, potentiation of GABA EC20 response, α3; format: cell-based; conditions: 100 nM compound
# T3 construct: expressed in transfected cells; host or cells: Xenopus laevis oocytes, cRNA injected
# T3 sequence (P34903 29-492): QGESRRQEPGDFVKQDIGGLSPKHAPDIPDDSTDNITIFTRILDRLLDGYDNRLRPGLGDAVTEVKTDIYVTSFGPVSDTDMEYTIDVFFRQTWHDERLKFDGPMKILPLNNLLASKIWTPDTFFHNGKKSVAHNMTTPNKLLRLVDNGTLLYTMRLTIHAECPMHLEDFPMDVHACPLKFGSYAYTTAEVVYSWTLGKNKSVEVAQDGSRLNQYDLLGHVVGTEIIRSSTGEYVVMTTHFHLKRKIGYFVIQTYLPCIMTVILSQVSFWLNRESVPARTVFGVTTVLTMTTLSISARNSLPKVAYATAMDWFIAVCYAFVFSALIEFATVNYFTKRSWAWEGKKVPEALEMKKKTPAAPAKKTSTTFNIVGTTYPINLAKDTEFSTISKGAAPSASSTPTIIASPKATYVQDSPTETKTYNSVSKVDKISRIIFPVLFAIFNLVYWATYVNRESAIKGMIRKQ
# T3 sequence (P28472 26-473 partner): as the sequence (P28472 26-473 partner) above
# T3 sequence (P18507 40-475): as the sequence (P18507 40-475) above
# Description: Electrophysiology protocol: Oocytes were prepared from adult female Xenopus laevis frogs. cRNA encoding human α1, α2, α3, α5, β3 and γ2L GABAA receptor subunits was injected into the cytoplasm of stage 5 or 6 oocytes using the Robocyte Robot (Multi Channel Systems, Reutlingen, Germany). Two-electrode voltage clamp recordings were made in 96-well plates using the Robocyte Robot. Oocytes were impaled using recording heads with two glass electrodes containing 1.5 M potassium acetate and 0.5 M KCl and held at a membrane potential of −80 mV. Oocytes were continually perfused with a ND96 solution (96 mM NaCl, 2 mM KCl, 0.1 mM CaCl2, and 5 mM HEPES, pH 7.5) using a Gilson 222 XL Liquid Handler and Gilson Minipuls 3 Peristaltic Pump (Gilson Medical Electronics, Middleton, Wis., USA). The protocol consisted of three 20-s applications of GABA that gave a 20% of the maximum response (EC20: 60 μM) to allow for headroom to determine a baseline GABA response. To assess the potentiation, oocytes were first exposed to a single 1 μM chlordiazepoxide (CDP) as a potentiation standard. Oocytes with insufficient expression levels (currents below threshold) or insufficient γ2L subunit incorporation (judged by rapid desensitization upon GABA application, or by insufficient potentiation by CDP) were not included in analysis. Following this control application, a given oocyte was exposed to test compounds at 100 nM concentrations. Only one concentration of one compound was tested per oocyte. […] One skilled in the art will recognize that subtypes contribute to the effects of GABA-A modulators. Such that compounds favoring different subtypes can have different therapeutic effects. The magnitude of modulation, for example, partial modulators can influence the effects in vivo. “++” indicates a greater modulation that “+” so that at any given subtype “++” inducates a greater amount of modulation for that subtype. In some embodiments, modulation favoring alpha 1 relative to alpha2 and/or alpha 3 can have sedative hypnotic effects. In other embodiments, compounds with reduced selectivity of alpha 1 can express anxiolytic effects with less sedation. Compounds with selectivity for alpha 5 can have memory/cognition enhancing effects.
Structure (SMILES),Percentage of potentiation alpha1 [1],% Inhibition at 1000 nM for CBZD [2],Number of Punished Crossings Mean ± S.E.M. (Swiss Webster (CFW) mice; 3 mg/kg PO),Number of Punished Crossings Mean ± S.E.M. (Swiss Webster (CFW) mice; 10 mg/kg PO),Number of Punished Crossings Mean ± S.E.M. (Swiss Webster (CFW) mice; 30 mg/kg PO),Percentage of potentiation alpha2 [3],also measured
"Cc1nnc2n1-c1ccc(Cl)cc1C(c1ccccc1)=NC2 [Alprazolam, reference compound]",–,–,–,–,–,–,Non-Suppressed Response Rates Mean ± S.E.M. (rhesus monkeys; 0.003 mg/kg IV): 2.18 ± 0.26 Responses/Second; Suppressed Response Rates Mean ± S.E.M. (rhesus monkeys; 0.003 mg/kg IV): 0.04 ± 0.02 Responses/Second; Non-Suppressed Response Rates Mean ± S.E.M. (rhesus monkeys; 0.01 mg/kg IV): 2.62 ± 0.32 Responses/Second; Suppressed Response Rates Mean ± S.E.M. (rhesus monkeys; 0.01 mg/kg IV): 0.76 ± 0.26 Responses/Second; Non-Suppressed Response Rates Mean ± S.E.M. (rhesus monkeys; 0.03 mg/kg IV): 2.38 ± 0.36 Responses/Second; Suppressed Response Rates Mean ± S.E.M. (rhesus monkeys; 0.03 mg/kg IV): 2.28 ± 0.55 Responses/Second; Non-Suppressed Response Rates Mean ± S.E.M. (rhesus monkeys; 0.1 mg/kg IV): 1.16 ± 0.26 Responses/Second; Suppressed Response Rates Mean ± S.E.M. (rhesus monkeys; 0.1 mg/kg IV): 1.44 ± 0.57 Responses/Second
"Fc1ccc(-c2nc3ccc(F)cn3c2Cn2nccn2)cc1 [Compound 60, 3-((2H-1,2,3-triazol-2-yl)methyl)-6-fluoro-2-(4-fluorophenyl)H-imidazo[1,2-a]pyridine]",0 (percentage of potentiation is between about 10% to about −10%),++ (percentage of inhibition of central BZD site binding is greater than 80% in the presence of 1000 nM of the compound),6.3 ± 0.45,6.3 ± 0.70,6.0 ± 0.30,+ (percentage of potentiation is greater than or equal to 10% but less than 50% in the presence of 100 nM of the compound),–
"Fc1ccc(-c2nc3ccc(F)cn3c2Cn2ccnn2)cc1 [Compound 61, 3-((1H-1,2,3-triazol-1-yl)methyl)-6-fluoro-2-(4-fluorophenyl)H-imidazo[1,2-a]pyridine]",+ (percentage of potentiation is greater than or equal to 10% but less than 50% in the presence of 100 nM of the compound),++ (percentage of inhibition of central BZD site binding is greater than 80% in the presence of 1000 nM of the compound),–,–,–,+ (percentage of potentiation is greater than or equal to 10% but less than 50% in the presence of 100 nM of the compound),Percentage of potentiation alpha3 [4]: ++ (percentage of potentiation is greater than or equal to 50% in the presence of 100 nM of the compound)
"NC(=O)c1nccn1Cc1c(-c2ccc(Cl)cc2)nc2ccccn12 [Compound 76, 1-((2-(4-chlorophenyl)H-imidazo[1,2-a]pyridin-3-yl)methyl)-1H-imidazole-2-carboxamide]",0 (percentage of potentiation is between about 10% to about −10%),++ (percentage of inhibition of central BZD site binding is greater than 80% in the presence of 1000 nM of the compound),6.7 ± 0.45,6.9 ± 0.35,6.3 ± 0.62,+ (percentage of potentiation is greater than or equal to 10% but less than 50% in the presence of 100 nM of the compound),–
"CN1CC[C@@H](Oc2ccnc(NCc3c(-c4ccc(F)cc4)nc4ccc(Cl)cn34)n2)C1 [Compound 183, (R)—N-((6-chloro-2-(4-fluorophenyl)imidazo[1,2-a]pyridin-3-yl)methyl)-4-(1-methylpyrrolidin-3-yloxy)pyrimidin-2-amine]",–,++ (percentage of inhibition of central BZD site binding is greater than 80% in the presence of 1000 nM of the compound),–,–,–,–,activation at 0.1 µM ([1]; read-out: Percentage of potentiation alpha1): ≥ 50%; activation at 0.1 µM ([4]; read-out: Percentage of potentiation alpha3): -10 to 10%; activation at 0.1 µM ([3]; read-out: Percentage of potentiation alpha2): ≥ 50%
